Laboratory results: patent US20150177246A1, “FUSION GENE OF CEP55 GENE AND RET GENE” (NATIONAL CANCER CENTER, priority 2012, published 2015)

System: downstream signals (STAT3, AKT, MAPK) of the CEP55-RET fusion polypeptide in NIH-3T3 cells
Test: Western blotting of downstream signals of the RET fusion polypeptide after serum starvation and culture with a RET tyrosine kinase inhibitor
Assay type: cell-based, murine
Conditions: inhibitor 1 μM in medium after serum starvation; NIH-3T3 cells expressing wild-type CEP55-RET; FIG. 7
Description: In this figure, “CEP55-RET” represents the results for cell lines expressing the CEP55-RET fusion polypeptide, and “KIF5B-RET” represents the results for cell lines expressing the KIF5B-RET fusion polypeptide. […] The “STAT3” and “p-STAT3 (Y705)” rows show the results of detecting STAT3 and phosphorylated STAT3, respectively. The “AKT” and “p-AKT (S473)” show the results of detecting AKT and phosphorylated AKT, respectively. The “MAPK” and “p-MAPK (T202/Y204)” rows show the results of detecting MAPK and phosphorylated MAPK, respectively.
Next, normal murine fibroblast line NIH-3T3 cells were infected with each of the thus-prepared retroviral vectors to obtain cell lines stably expressing the wild-type or the mutated CEP55-RET fusion polypeptide.
In addition, the cell lines stably expressing the wild-type or the mutated RET fusion polypeptide were each cultured in a liquid medium, subjected to serum starvation, and then cultured again with the medium being replaced with the one supplemented with a RET tyrosine kinase inhibitor (vandetanib or XL184). Protein from each of the thus-obtained cell lines was extracted and subjected to Western blotting analysis using antibodies against various phosphorylated or unphosphorylated proteins to thereby analyze the downstream signals of the RET fusion polypeptides.

Structure (SMILES): COc1cc2c(Nc3ccc(Br)cc3F)ncnc2cc1OCC1CCN(C)CC1 [V, 4-(4-bromo-2-fluoroanilino)-6-methoxy-7-(1-methylpiperidin-4-ylmethoxy)quinazoline]
- phosphorylation of MAPK, p-MAPK (T202/Y204705): significantly suppressed
- phosphorylation of STATS, p-STAT3 (Y705): significantly suppressed
